Assay results: paper PMC4454739 (Clinical cancer research : an official journal of the …, 2014)
Read-outs that look alike come from different tables or passages of the source. Values belong to the molecule of their own block, whether it stands above or below them.

Columns and labels:
[1] = format: in vivo, human; conditions: for change of exposure (AUC) with dose: temsirolimus 8, 10 and 15 mg/m^2; for AUC(0-inf) / AUC(0-t) / Cmax / Tmax / Vd / half-life / clearance: human, intravenous; for AUC(0-inf) / AUC(0-t) / Cmax / Tmax / Vd / half-life: plasma; for clearance: whole blood
[2] = Phase I toxicity, DLT and MTD determination; format: in vivo, human; conditions: for recommended pediatric phase II dose: IV once every 7 days
[3] = cited from earlier work
[4] = adults, metastatic prostate cancer; with cixutumumab 6 mg/kg IV; cited from earlier work
[5] = in vivo, 6 mg/kg; cited from earlier work
[6] = in vivo; cited from earlier work
Cixutumumab = conditions: for AUC0–7d / CL / CL (weight-adjusted) / Cmax / Vdss / Vdss (weight-adjusted): median
[7] = all patients, combination with temsirolimus
[8] = cycle 1, IMC-A12 6 mg/kg + temsirolimus 8 mg/m^2 (n=8)
[9] = cycle 1, IMC-A12 6 mg/kg + temsirolimus 10 mg/m^2 (n = 3)
[10] = cycle 1, IMC-A12 6 mg/kg + temsirolimus 15 mg/m^2 (n = 4)

change of exposure (AUC) with dose [1]: did not appreciably increase with dose
change of exposure (AUC) with dose ([1]; listed as sirolimus): did not increase significantly with dose
Molecule: CO[C@H]1C[C@@H]2CC[C@@H](C)[C@@](O)(O2)C(=O)C(=O)N2CCCC[C@H]2C(=O)O[C@H]([C@H](C)C[C@@H]2CC[C@@H](O)[C@H](OC)C2)CC(=O)[C@H](C)/C=C(\C)[C@@H](O)[C@@H](OC)C(=O)[C@H](C)C[C@H](C)/C=C/C=C/C=C/1C [Sirolimus]

Molecule: CO[C@H]1C[C@@H]2CC[C@@H](C)[C@@](O)(O2)C(=O)C(=O)N2CCCC[C@H]2C(=O)O[C@H]([C@H](C)C[C@@H]2CC[C@@H](OC(=O)C(C)(CO)CO)[C@H](OC)C2)CC(=O)[C@H](C)/C=C(\C)[C@@H](O)[C@@H](OC)C(=O)[C@H](C)C[C@H](C)/C=C/C=C/C=C/1C [Temsirolimus]
AUC(0-inf) ([1]; 8 mg/m2): 2950 ng·h/mL
AUC(0-t) ([1]; 8 mg/m2): 2020 ng·h/mL
Cmax ([1]; 8 mg/m2): 509 ng/mL
Tmax ([1]; 8 mg/m2): 0.8 h
Vd ([1]; 8 mg/m2): 46.3 L
half-life ([1]; 8 mg/m2): 10.3 h
AUC(0-inf) ([1]; 10 mg/m2): 3650 ng·h/mL
AUC(0-t) ([1]; 10 mg/m2): 2650 ng·h/mL
Cmax ([1]; 10 mg/m2): 606 ng/mL
Tmax ([1]; 10 mg/m2): 0.7 h
Vd ([1]; 10 mg/m2): 50.4 L
half-life ([1]; 10 mg/m2): 10.5 h
AUC(0-inf) ([1]; 15 mg/m2): 3270 ng·h/mL
AUC(0-t) ([1]; 15 mg/m2): 2780 ng·h/mL
Cmax ([1]; 15 mg/m2): 660 ng/mL
Tmax ([1]; 15 mg/m2): 0.6 h
Vd ([1]; 15 mg/m2): 74.9 L
half-life ([1]; 15 mg/m2): 10.3 h
clearance ([1]; 8 mg/m2): 38.3 mL/min
clearance ([1]; 10 mg/m2): 91.7 mL/min
clearance ([1]; 15 mg/m2): 112 mL/min
change of exposure (AUC) with dose [1]: did not increase significantly with dose
MTD ([2]; temsirolimus combined with cixutumumab 6 mg/kg, children): 8 mg/m^2
recommended pediatric phase II dose ([2]; temsirolimus in combination with cixutumumab): 8 mg/m^2
clearance from whole blood, mean ([3]; after a 25-mg dose): 20 L/h
steady-state volume of distribution (Vss) ([3]; after a 25-mg dose): 230 L
clearance from whole blood, mean ([3]; after a 250-mg dose): 100 L/h
steady-state volume of distribution (Vss) ([3]; after a 250-mg dose): 900 L
MTD of temsirolimus in the combination, flat dose [4]: 20 mg
MTD of temsirolimus in the combination, per body surface [4]: 11 mg/m^2

Molecule: Cixutumumab: fully recombinant IgG1 monoclonal antibody that specifically targets the human IGF-IR1
recommended pediatric phase II dose ([2]; cixutumumab in combination with temsirolimus): 6 mg/kg
half-life [5]: 209 h
steady-state trough concentration [5]: 145 mg/mL
recommended phase II dose, single agent [6]: 9 mg/kg
median half-life (Cixutumumab; [7]): 122 h
median weight-adjusted clearance (Cixutumumab; [7]): 4.08 mL/day/kg
half-life (Cixutumumab; at 6 mg/kg, children): 122 h
steady-state trough concentration (Cixutumumab; at 6 mg/kg, children): 197 mg/mL
median serum trough concentration (Ctrough) (Cixutumumab; day 28 following a 6 mg/kg dose): approximately 200 μg/ml
AUC0–7d (Cixutumumab; [8]): 20.6 ng·h/mL
CL (Cixutumumab; [8]): 8.3 mL/h
CL (weight-adjusted) (Cixutumumab; [8]): 4.56 mL/day/kg
Cmax (Cixutumumab; [8]): 281000 ng/mL
Vdss (Cixutumumab; [8]): 1050 mL
Vdss (weight-adjusted) (Cixutumumab; [8]): 0.0258 L/kg
AUC0–7d (Cixutumumab; [9]): 25.6 ng·h/mL
CL (Cixutumumab; [9]): 9.9 mL/h
CL (weight-adjusted) (Cixutumumab; [9]): 4.08 mL/day/kg
Cmax (Cixutumumab; [9]): 277000 ng/mL
Vdss (Cixutumumab; [9]): 1750 mL
Vdss (weight-adjusted) (Cixutumumab; [9]): 0.0227 L/kg
AUC0–7d (Cixutumumab; [10]): 26.4 ng·h/mL
CL (Cixutumumab; [10]): 7.0 mL/h
CL (weight-adjusted) (Cixutumumab; [10]): 3.12 mL/day/kg
Cmax (Cixutumumab; [10]): 230000 ng/mL
Vdss (Cixutumumab; [10]): 1860 mL
Vdss (weight-adjusted) (Cixutumumab; [10]): 0.0311 L/kg
change in cixutumumab clearance as the temsirolimus dose was increased (Cixutumumab; temsirolimus 8 to 15 mg/m^2): no changes
